In patent US20260007601A1, “IONIZABLE CATIONIC LIPID COMPOUND AND COMPOSITION FOR DELIVERING NUCLEIC ACID AND USE THEREOF” (BEIJING YOUCAREKECHUANG PHARMACEUTICAL TECHNOLOGY CO., LTD., priority 2023, published 2026):
Where “and” joins values, the source holds several entries; their conditions need not be identical. Equal entries are not always repeated.

Columns and labels:
female BALB/C mice = assay: Mouse in vivo imaging of Fluc-mRNA LNP formulations; parameters: average radiation intensity (mRNA expression): unit not given here; details: for average radiation intensity (mRNA expression): 10 μg Fluc-mRNA LNP intramuscularly
Procedure, shortened: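 Female BALB/C mice (4–6 weeks, 17–19 g) received LNP carrying 10 μg Fluc-mRNA intramuscularly. Imaging substrate given intraperitoneally at 6 h, 24 h, 48 h and 7 d; after 5 min free movement, average radiance read by IVIS Spectrum imaging.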

293T cells [1] = assay: Cell survival rate assay (CCK-8); type: cell-based
Procedure, shortened: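 293T cells seeded at 10,000 per well and grown overnight, then exposed for 24 h to LNPs (cationic/neutral/structured/PEG lipids 49:10:39.5:1.5) carrying 1.5 μg Fluc-mRNA, or Lipofectamine 3000. Viability read by CCK-8, 1 h incubation, absorbance at 450 nm.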

[2] = Particle size and polydispersity index (PDI) of nanolipid particles, dynamic light scattering; type: physicochemical; details: LNP formulation prepared from the named cationic lipid, 25° C
Protocol: The particle size and polydispersity index (PDI) were determined by dynamic light scattering method using a Malvern laser particle size analyzer. 10 μL of liposome solution was diluted to 1 mL with RNase-free deionized water and added to a sample pool. Each sample was measured three times. The measurement conditions were: 90° scattering angle, 25° C.

293T cells [3] = assay: Fluorescence detection of Fluc-mRNA (cell transfection efficiency of LNP formulations); type: cell-based
Procedure, shortened: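 293T cells at 10,000 per well, adhered overnight, then given LNPs carrying 0.3 μg Fluc-mRNA (cationic:neutral:structured:polymer-conjugated lipid 49:10:39.5:1.5 molar). After 24 h, luciferase signal read with luciferase kit reagents on an IVIS imaging system as transfection efficiency.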

CCCCCCCCCCCOC(=O)CCCCCN(CCCCCCCC(=O)OCC(CCCCCCCC)CCCCCCCC)CCN(C)CCO [YK-202]
average radiation intensity, times that of ALC-0315 (female BALB/C mice; 6 h): 3.48 times | average radiation intensity, times that of HHMA (female BALB/C mice; 6 h): 4.59 times | average radiation intensity, times that of SM-102 (female BALB/C mice; 6 h): 4.32 times | average radiation intensity, times that of compound 21 (female BALB/C mice; 6 h): 4.89 times | average radiation intensity, times that of compound 23 (female BALB/C mice; 6 h): 4.94 times | mRNA expression level, times that of YK-204 (female BALB/C mice; 6 h): 83.29 times | mRNA expression level, times that of YK-223 (female BALB/C mice; 6 h): 283.49 times | average radiation intensity (mRNA expression) (female BALB/C mice; 6 h): 2935500 | expression level, times that of YK-215 (female BALB/C mice; 6 hours): 58.06 times | expression level, times that of YK-217 (female BALB/C mice; 6 hours): 119.40 times | average radiation intensity, times that of ALC-0315 (female BALB/C mice; 24 h): 11.84 times | average radiation intensity, times that of HHMA (female BALB/C mice; 24 h): 19.69 times | average radiation intensity, times that of SM-102 (female BALB/C mice; 24 h): 18.64 times | average radiation intensity, times that of compound 21 (female BALB/C mice; 24 h): 19.99 times | average radiation intensity, times that of compound 23 (female BALB/C mice; 24 h): 19.47 times | mRNA expression level, times that of YK-204 (female BALB/C mice; 24 h): 412.78 times | mRNA expression level, times that of YK-223 (female BALB/C mice; 24 h): 1208.76 times | average radiation intensity (mRNA expression) (female BALB/C mice; 24 h): 2158840 | expression level, times that of YK-215 (female BALB/C mice; 24 hours): 316.78 times | expression level, times that of YK-217 (female BALB/C mice; 24 hours): 814.66 times | average radiation intensity, times that of ALC-0315 (female BALB/C mice; 48 h): 19.80 times | average radiation intensity, times that of HHMA (female BALB/C mice; 48 h): 25.64 times | average radiation intensity, times that of SM-102 (female BALB/C mice; 48 h): 24.71 times | average radiation intensity, times that of compound 21 (female BALB/C mice; 48 h): 25.15 times | average radiation intensity, times that of compound 23 (female BALB/C mice; 48 h): 23.54 times | mRNA expression level, times that of YK-204 (female BALB/C mice; 48 h): 309.43 times | mRNA expression level, times that of YK-223 (female BALB/C mice; 48 h): 1113.57 times | average radiation intensity (mRNA expression) (female BALB/C mice; 48 h): 755000 | expression level, times that of YK-215 (female BALB/C mice; 48 hours): 207.42 times | expression level, times that of YK-217 (female BALB/C mice; 48 hours): 737.30 times | average radiation intensity, times that of ALC-0315 (female BALB/C mice; 7 d): 5.09 times | average radiation intensity, times that of HHMA (female BALB/C mice; 7 d): 6.31 times | average radiation intensity, times that of SM-102 (female BALB/C mice; 7 d): 5.68 times | average radiation intensity, times that of compound 21 (female BALB/C mice; 7 d): 5.49 times | average radiation intensity, times that of compound 23 (female BALB/C mice; 7 d): 5.75 times | expression level, times that of YK-215 (female BALB/C mice; 7 d): 32.87 times | expression level, times that of YK-217 (female BALB/C mice; 7 d): 64.10 times | mRNA expression level, times that of YK-204 (female BALB/C mice; 7 d): 44.46 times | mRNA expression level, times that of YK-223 (female BALB/C mice; 7 d): 76.19 times | average radiation intensity (mRNA expression) (female BALB/C mice; 7 d): 33524 | mRNA expression level in mice can reach, times that of SM-102 (female BALB/C mice; time point not stated): 24 times | Cell survival rate (293T cells [1]; LNP containing 1.5 μg Fluc-mRNA, 24 hours, CCK-8): 76.81% | cell survival rate higher (cytotoxicity reduced) compared with YK-221 (293T cells [1]; difference of rates): 55% and 55.86% | cell survival rate higher (toxicity lower) than that of YK-204 (293T cells [1]; difference of rates): 34.24% | cell survival rate higher (toxicity lower) than that of YK-225 (293T cells [1]; difference of rates): 33.40% | cell survival rate higher than that of ALC-0315 (293T cells [1]; difference of rates): 26.85% | cell survival rate higher than that of HHMA (293T cells [1]; difference of rates): 11.25% | cell survival rate higher than that of Lipofectamine 3000 (293T cells [1]; difference of rates): 53.76% | cell survival rate higher than that of SM-102 (293T cells [1]; difference of rates): 8.26% | cell survival rate higher than that of YK-203 (293T cells [1]; difference of rates): 41.25% | cell survival rate higher than that of YK-205 (293T cells [1]; difference of rates): 17.89% | cell survival rate higher than that of YK-208 (293T cells [1]; difference of rates): 30.13% | cell survival rate higher than that of YK-210 (293T cells [1]; difference of rates): 38.43% | cell survival rate higher than that of YK-211 (293T cells [1]; difference of rates): 24.51% | cell survival rate higher than that of YK-212 (293T cells [1]; difference of rates): 41.55% | cell survival rate higher than that of YK-213 (293T cells [1]; difference of rates): 35.37% | cell survival rate higher than that of YK-214 (293T cells [1]; difference of rates): 51.23% and 50% | cell survival rate higher than that of YK-215 (293T cells [1]; difference of rates): 32.22% | cell survival rate higher than that of YK-216 (293T cells [1]; difference of rates): 31.01% | cell survival rate higher than that of YK-217 (293T cells [1]; difference of rates): 34.54% | cell survival rate higher than that of YK-219 (293T cells [1]; difference of rates): 18.20% | cell survival rate higher than that of YK-220 (293T cells [1]; difference of rates): 17.82% | cell survival rate higher than that of YK-222 (293T cells [1]; difference of rates): 43.06% | cell survival rate higher than that of YK-223 (293T cells [1]; difference of rates): 40.17% | cell survival rate higher than that of YK-224 (293T cells [1]; difference of rates): 53.34% | cell survival rate higher than that of YK-226 (293T cells [1]; difference of rates): 48.91% | cell survival rate higher than that of compound 21 (293T cells [1]; difference of rates): 7.79% | cell survival rate higher than that of compound 23 (293T cells [1]; difference of rates): 6.71% | PDI [2]: 23.4% | Particle size [2]: 173 nm | RLU / cell transfection efficiency, times that of ALC-0315 (293T cells [3]; Fluc-mRNA LNP): 13.95 times | RLU / cell transfection efficiency, times that of HHMA (293T cells [3]; Fluc-mRNA LNP): 14.27 times | RLU / cell transfection efficiency, times that of Lipofectamine 3000 (293T cells [3]; Fluc-mRNA LNP): 24.94 times | RLU / cell transfection efficiency, times that of YK-009 (293T cells [3]; Fluc-mRNA LNP): 5.84 times | RLU / cell transfection efficiency, times that of compound 21 (293T cells [3]; Fluc-mRNA LNP): 21.08 times and 21 times | RLU / cell transfection efficiency, times that of compound 23 (293T cells [3]; Fluc-mRNA LNP): 22.49 times and 22 times | cell transfection efficiency, times that of YK-223 (293T cells [3]; Fluc-mRNA LNP): 399.37 times | cell transfection efficiency, times that of YK-224 (293T cells [3]; Fluc-mRNA LNP): 340.35 times | cell transfection efficiency, times that of YK-226 (293T cells [3]; Fluc-mRNA LNP): 519.55 times | fluorescence absorption value / cell transfection efficiency, times that of YK-203 (293T cells [3]; Fluc-mRNA LNP): 7.74 times | fluorescence absorption value / cell transfection efficiency, times that of YK-204 (293T cells [3]; Fluc-mRNA LNP): 82 times and 82.30 times | fluorescence absorption value / cell transfection efficiency, times that of YK-205 (293T cells [3]; Fluc-mRNA LNP): 29.11 times | fluorescence absorption value / cell transfection efficiency, times that of YK-208 (293T cells [3]; Fluc-mRNA LNP): 7.76 times | fluorescence absorption value / cell transfection efficiency, times that of YK-210 (293T cells [3]; Fluc-mRNA LNP): 6.47 times | fluorescence absorption value / cell transfection efficiency, times that of YK-211 (293T cells [3]; Fluc-mRNA LNP): 21.87 times | fluorescence absorption value / cell transfection efficiency, times that of YK-212 (293T cells [3]; Fluc-mRNA LNP): 7.66 times | fluorescence absorption value / cell transfection efficiency, times that of YK-213 (293T cells [3]; Fluc-mRNA LNP): 21.95 times | fluorescence absorption value / cell transfection efficiency, times that of YK-214 (293T cells [3]; Fluc-mRNA LNP): 6.54 times | fluorescence absorption value / cell transfection efficiency, times that of YK-215 (293T cells [3]; Fluc-mRNA LNP): 30.53 times | fluorescence absorption value / cell transfection efficiency, times that of YK-216 (293T cells [3]; Fluc-mRNA LNP): 13.14 times | fluorescence absorption value / cell transfection efficiency, times that of YK-217 (293T cells [3]; Fluc-mRNA LNP): 416.94 times | fluorescence absorption value / cell transfection efficiency, times that of YK-218 (293T cells [3]; Fluc-mRNA LNP): 49.35 times | fluorescence absorption value / cell transfection efficiency, times that of YK-219 (293T cells [3]; Fluc-mRNA LNP): 19.89 times | fluorescence absorption value / cell transfection efficiency, times that of YK-220 (293T cells [3]; Fluc-mRNA LNP): 138.44 times | fluorescence absorption value, times that of YK-222 (293T cells [3]; Fluc-mRNA LNP): 49.41 times | Relative light unit (RLU) (293T cells [3]; LNP containing 0.3 μg Fluc-mRNA, 24 hours): 29957419 RLU | Multiples of values that equivalent to YK-201 (293T cells [3]; RLU of YK-201 / RLU of the named lipid): 0.95 | Multiples of values that equivalent to YK-202 (293T cells [3]; RLU of YK-202 / RLU of the named lipid): 1.00
